According to paper PMC5487681, “Identification of Antifungal H^+-ATPase Inhibitors with Effect on Plasma Membrane Potential” (Antimicrobial Agents and Chemotherapy, 2017):
≈ marks a conversion by molar mass, not a printed value. Read-outs that look alike come from different tables or passages of the source. Residues, ends and D or L forms follow the SMILES beside them.

Key:
[1] = system: Candida glabrata ATCC 90030; experiment: microbe, parasite or virus in culture; conditions: for MIC: Nakaseomyces glabratus
Experimental: (§1) The following fungal isolates were used: Saccharomyces cerevisiae ATCC 9763, Candida albicans SC5314, Candida parapsilosis ATCC 22019, Candida tropicalis Ct016, Candida glabrata ATCC 90030, Aspergillus fumigatus ATCC 13073, and Aspergillus flavus ATCC MYA-1005. Frozen stocks of yeast isolates in glycerol (final concentration, 20%) were prepared by growing the cells to log phase in YPD medium at 30°C and 150 rpm. Frozen stocks of mold spores were prepared by harvesting spores from 7-day-old potato glucose agar plates in phosphate-buffered saline, 0.1% Tween 80 and aliquoting these spores in the presence of glycerol (final concentration, 20%). The cells were stored at −80°C. The cells or spores were thawed and diluted to a final concentration of 0.5 × 10^5 to 2.5 × 10^5 CFU/ml in sterile Milli-Q H2O. […] The plate was incubated for 20 to 24 h at 34°C (72 h for molds), and the OD490 was measured on a Victor X5 (PerkinElmer) plate reader. Mold growth assay plates were also visually inspected. The MIC was defined as the lowest concentration inhibiting the visual growth of the microorganism.

[2] = system: Candida tropicalis Ct016; experiment: microbe, parasite or virus in culture; conditions: for MIC: Candida tropicalis
Experimental: as §1

[3] = system: Candida parapsilosis ATCC 22019; experiment: microbe, parasite or virus in culture; conditions: for MIC: Lodderomyces parapsilosis
Experimental: as §1

[4] = system: Candida albicans SC5314; experiment: microbe, parasite or virus in culture; conditions: for MIC: Candida albicans
Experimental: as §1

[5] = system: Aspergillus fumigatus ATCC 13073; experiment: microbe, parasite or virus in culture; conditions: for MIC: Aspergillus fumigatus
Experimental: as §1

[6] = target: S. cerevisiae Pma1 (Saccharomyces cerevisiae, UniProt P05030); experiment: ATP hydrolysis assay, S. cerevisiae plasma membranes containing Pma1; assay type: biochemical; parameters: containing the full-length cDNA of the S. cerevisiae plasma membrane H^+-ATPase isoform PMA1; made in house; host or cells: S. cerevisiae RS72 (PMA1 cDNA under PMA1 promoter); also wild-type S. cerevisiae ATCC 9763
Experimental: Plasma membranes containing Pma1 were isolated from S. cerevisiae RS72 cells containing the full-length cDNA of the S. cerevisiae plasma membrane H^+-ATPase isoform PMA1 under the control of the PMA1 promoter, as described in reference.
A 100-ml overnight culture in YPD medium [10 g/liter yeast extract (BD, Sparks, MD), 20 g/liter Bacto peptone (BD), 20 g/liter D-(+)-glucose] was transferred to 1 liter YPD medium and grown at room temperature and 150 rpm for 18 h for wild-type S. cerevisiae (ATCC 9763) and 7 h for C. albicans. The cells were harvested and washed in Milli-Q H2O by centrifugation at 3,360 × g. The cells were glucose activated by the addition of 10% D-(+)-glucose for 10 min while shaking. The cells were then centrifuged at 3,360 × g for 3 min and frozen. Cells (60 to 80 g, wet weight) were then disrupted by bead beating (BioSpec, Bartlesville, OK) and processed as described in reference to prepare the plasma membranes. […] All batches were validated by ATPase hydrolysis activity, pH optimum, and orthovanadate sensitivity.
The protein activity levels were determined by measuring the amount of free phosphate produced from the ATP hydrolysis reaction. The assay was performed as described in reference. Each well contained ATPase enzyme, 2 μl of inhibitor (usually in the range of 333 to 0.01 μM) dissolved in dimethyl sulfoxide (DMSO) (Duchefa Biochemie, Haarlem, The Netherlands), and an assay buffer dependent on the enzyme for a final volume of 60 μl. Possible compound precipitation in the assay buffer was monitored using a Nephelostar plate reader measuring turbidity, and the information was taken into account in the IC50 determination. Pma1 assay buffer consisted of 20 mM 3-(N-morpholino)propanesulfonic acid (MOPS)–NaOH, pH 6.5 or 7.0, 8 mM MgSO4, 50 mM KNO3 (a vacuolar ATPase inhibitor), 25 mM sodium azide (a mitochondrial ATPase inhibitor), and 250 μM sodium molybdate (an acid phosphatase inhibitor). SERCA buffer consisted of 9 mM MOPS-NaOH, pH 7, 2.7 mM MgCl2, 90 μM CaCl2, and 72 mM KCl. Na^+,K^+-ATPase buffer consisted of 30 mM MOPS-NaOH, pH 7, 40 mM NaCl, 4 mM MgCl2, and 20 mM KCl. The concentration of protein was adjusted to obtain a signal of the optical density at 860 nm (OD860) of between 0.5 and 1.0 in the untreated samples (for all Pma1 batches, ∼1 to 2 μg/well; for SERCA and Na^+,K^+-ATPase, ∼0.1 to 0.2 μg/well). […]

[7] = Table 2, pH 7, n = 2, read-out: IC50 for ATP hydrolysis, S. cerevisiae Pma1
[8] = ATCC90030, pH 7, read-out: MIC C. glabrata
[9] = CT016, pH 7, read-out: MIC C. tropicalis
[10] = ATCC22019, pH 7, read-out: MIC C. parapsilosis
[11] = SC5314, pH 7, read-out: MIC C. albicans
[12] = ATCC13073, 72 h, pH 7, read-out: MIC A. fumigatus
[13] = Table 1, ATP hydrolysis at pH 6.5 (compounds marked b), 2 to 3 experiments, read-out: IC50 Pma1
[14] = Table 1, ATP hydrolysis at pH 7, 2 to 3 experiments, read-out: IC50 Pma1
[15] = ATP hydrolysis, S. cerevisiae Pma1, read-out: IC50 for Pma1
[16] = ATCC90030, read-out: MIC for growth inhibition, C. glabrata
[17] = CT016, read-out: MIC for growth inhibition, C. tropicalis
[18] = ATCC22019, read-out: MIC for growth inhibition, C. parapsilosis
[19] = SC5314, read-out: Growth inhibition MIC, C. albicans in RPMI
[20] = SC5314, read-out: MIC for growth inhibition, C. albicans
[21] = ATCC13073, read-out: MIC for growth inhibition, A. fumigatus

S. cerevisiae Pma1, sequence (P05030 whole entry, canonical isoform): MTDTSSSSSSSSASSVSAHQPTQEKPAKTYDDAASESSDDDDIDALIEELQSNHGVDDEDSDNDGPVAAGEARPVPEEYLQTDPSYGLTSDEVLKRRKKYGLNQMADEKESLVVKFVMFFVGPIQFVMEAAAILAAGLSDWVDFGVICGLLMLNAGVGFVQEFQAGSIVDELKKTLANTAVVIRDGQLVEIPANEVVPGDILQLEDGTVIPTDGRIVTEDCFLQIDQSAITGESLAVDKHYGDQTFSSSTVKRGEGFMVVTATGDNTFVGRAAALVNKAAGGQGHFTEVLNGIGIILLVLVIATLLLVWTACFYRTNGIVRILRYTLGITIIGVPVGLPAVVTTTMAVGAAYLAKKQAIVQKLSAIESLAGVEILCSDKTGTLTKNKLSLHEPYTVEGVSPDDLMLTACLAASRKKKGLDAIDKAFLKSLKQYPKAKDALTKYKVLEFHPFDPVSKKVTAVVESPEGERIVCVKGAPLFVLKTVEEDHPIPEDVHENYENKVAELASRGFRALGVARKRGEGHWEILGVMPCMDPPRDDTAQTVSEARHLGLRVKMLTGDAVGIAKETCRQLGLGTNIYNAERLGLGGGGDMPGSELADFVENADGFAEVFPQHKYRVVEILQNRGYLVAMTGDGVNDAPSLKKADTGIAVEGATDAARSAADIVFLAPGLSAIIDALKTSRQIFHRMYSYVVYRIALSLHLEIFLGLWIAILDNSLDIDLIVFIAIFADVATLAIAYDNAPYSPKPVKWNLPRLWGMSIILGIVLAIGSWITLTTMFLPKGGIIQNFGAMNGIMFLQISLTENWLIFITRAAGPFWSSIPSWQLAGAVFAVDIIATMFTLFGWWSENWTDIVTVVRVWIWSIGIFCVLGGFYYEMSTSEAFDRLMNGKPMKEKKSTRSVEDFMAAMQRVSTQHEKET

| Compound | MIC [1, 8] | MIC [2, 9] | MIC [3, 10] | MIC [4, 11] | MIC [5, 12] | IC50 [6, 13] | IC50 [6, 14] | further results |
| --- | --- | --- | --- | --- | --- | --- | --- | --- |
| N=C(N)NCCC[C@@H](N)C(=O)N[C@H](CCCNC(=N)N)C(=O)N[C@H](CCCNC(=N)N)C(=O)N[C@H](Cc1ccccc1)C(=O)N[C@H](Cc1c[nH]c2ccccc12)C(=O)N[C@H](Cc1c[nH]c2ccccc12)C(=O)N[C@H](Cc1ccccc1)C(=O)N[C@H](CCCNC(=N)N)C(=O)N[C@H](CCCNC(=N)N)C(=O)N[C@H](CCCNC(=N)N)C(N)=O [BM2, reference compound] (HELM PEPTIDE1{[dR].[dR].[dR].[dF].[dW].[dW].[dF].[dR].[dR].[dR].[am]}$$$$V2.0) | – | – | – | – | – | – | – | MIC for growth inhibition, C. glabrata ([1]; ATCC 90030): 150 µM; MIC for growth inhibition, C. tropicalis ([2]; Ct016): 4.7 µM; MIC for growth inhibition, C. parapsilosis ([3]; ATCC 22019): 26 µM; MIC for growth inhibition, C. albicans ([4]; SC5314): 15 µM; MIC for growth inhibition, A. fumigatus ([5]; ATCC 13073): >150 µM; IC50 [6, 7]: 1.2 ± 0.1 µM; Selectivity for Pma1 over Na^+,K^+-ATPase ([6]; from IC50 of Table 2): 8 fold |
| O=C1/C(=C/c2ccc(-c3cc(Cl)ccc3Cl)o2)C=C(c2ccccc2)N1c1ccccc1O [Compound 1] | > 150 µM | > 150 µM | > 150 µM | > 150 µM | > 150 µM | 0.04 ± 0.035 µM | – | – |
| COc1ccc(-c2cc(C(=O)Nc3ccc(C(C)C)cc3)c3ccccc3n2)c(OC)c1 [Compound 3] | > 150 µM | > 150 µM | > 150 µM | > 150 µM | > 150 µM | – | 2.5 ± 2.5 µM | – |
| CC1CCCCN1CC(O)Cn1c(-c2ccccc2)c(-c2ccccc2)c2ccc3ccccc3c21 (centres unmarked) [Compound 4] | > 38 µM | 12 µM (≈ 5.7 µg/mL) | > 38 µM | 13 µM (≈ 6.17 µg/mL) | > 38 µM | 3.7 ± 0.7 µM | – | – |
| CCOc1ccc2nc3cc(NC(=O)c4cccc(Br)c4)ccc3c(N)c2c1 [Compound 5] | 5.8 µM (≈ 2.53 µg/mL) | 7.5 µM (≈ 3.27 µg/mL) | 7.5 µM (≈ 3.27 µg/mL) | 6.5 µM (≈ 2.84 µg/mL) | > 75 µM | 4.4 ± 0.6 µM | – | IC50 [6, 15]: < 25 µM |
| Cc1c(-c2ccccc2)[o+]c2ccccc2c1C#Cc1ccccc1 [Compound 6] | > 150 µM | > 150 µM | > 150 µM | > 150 µM | > 150 µM | 5 ± 3 µM | – | – |
| Oc1cccc(Nc2nc(-c3ccc(Cl)c(Cl)c3)cs2)c1 [Compound 7] | 4.7 µM (≈ 1.58 µg/mL) | 26 µM (≈ 8.77 µg/mL) | 8.2 µM (≈ 2.77 µg/mL) | 7.3 µM (≈ 2.46 µg/mL) | > 150 µM | 5.5 ± 0.3 µM | – | IC50 [6, 15]: < 25 µM |
| COc1ccc(-c2cc(C(=O)Nc3ccc4c(c3)OCCO4)c3ccccc3n2)c(OC)c1 [Compound 8] | > 38 µM | > 38 µM | > 38 µM | > 38 µM | > 38 µM | – | 6.9 ± 2 µM | – |
| COc1cccc(Nc2nc(Cl)nc(Nc3cccc(OC)c3)n2)c1 [Compound 9] | > 150 µM | > 150 µM | > 150 µM | > 150 µM | > 150 µM | – | 9.2 ± 1 µM | – |
| CCCCOc1ccc(C2C(C#N)=C(N)Oc3cc(O)ccc32)cc1 (centres unmarked) [Compound 11] | > 150 µM | > 150 µM | > 150 µM | > 150 µM | > 150 µM | – | 12.8 ± 5 µM | – |
| COc1ccc(Cn2c(SCc3cc(C)ccc3C)nc3cc(OC)c(OC)cc3c2=N)cc1 [Compound 12] | > 150 µM | > 150 µM | > 150 µM | 12 µM (≈ 5.71 µg/mL) | > 150 µM | – | 15.5 ± 8.1 µM | – |
| CCCCc1nc2sc3c(NCCCN(C)C)ncnc3c2c2c1CCCC2 [Compound 14] | 41 µM (≈ 16.3 µg/mL) | 24 µM (≈ 9.54 µg/mL) | 24 µM (≈ 9.54 µg/mL) | 36 µM (≈ 14.3 µg/mL) | 75 µM (≈ 29.8 µg/mL) | – | 13.7 ± 2 µM | MIC [1, 16]: 41 µM (≈ 16.3 µg/mL); MIC [2, 17]: 24 µM (≈ 9.54 µg/mL); MIC [3, 18]: 24 µM (≈ 9.54 µg/mL); MIC [4, 19]: 36 µM (≈ 14.3 µg/mL); MIC [4, 20]: 36 µM (≈ 14.3 µg/mL); MIC [5, 21]: 75 µM (≈ 29.8 µg/mL); IC50 [6, 7]: 13.7 ± 2 µM; Selectivity for Pma1 over SERCA ([6]; from IC50 of Table 2): 3 fold |
| CCCCc1nc2sc3c(NCCCN(C)C)nc(SC)nc3c2c2c1CCC2 [Compound 15] | – | – | – | – | – | – | – | MIC [1, 16]: 15 µM (≈ 6.44 µg/mL); MIC [2, 17]: 47 µM (≈ 20.2 µg/mL); MIC [3, 18]: 15 µM (≈ 6.44 µg/mL); MIC [4, 19]: 4.8 µM (≈ 2.06 µg/mL); MIC [4, 20]: 4.8 µM (≈ 2.06 µg/mL); MIC [5, 21]: 15 µM (≈ 6.44 µg/mL); IC50 [6, 7]: 5.9 ± 0.2 µM; Selectivity toward Pma1 than toward SERCA or Na^+,K^+-ATPase ([6]; from IC50 of Table 2): no selectivity |
| CN(C)CCCNc1ncnc2c1sc1nc(N3CCCCC3)c3c(c12)CCCC3 [Compound 16] | – | – | – | – | – | – | – | MIC [1, 16]: 11 µM (≈ 4.67 µg/mL); MIC [2, 17]: 28 µM (≈ 11.9 µg/mL); MIC [3, 18]: 15 µM (≈ 6.37 µg/mL); MIC [4, 19]: 15 µM (≈ 6.37 µg/mL); MIC [4, 20]: 15 µM (≈ 6.37 µg/mL); MIC [5, 21]: 15 µM (≈ 6.37 µg/mL); IC50 [6, 7]: 7.8 ± 0.6 µM; Selectivity toward Pma1 than toward SERCA or Na^+,K^+-ATPase ([6]; from IC50 of Table 2): no selectivity |
| O=c1c2ccccc2[se]n1-c1ccccc1 [Ebselen, reference compound] | – | – | – | – | – | – | – | MIC [1, 16]: 7.5 µM (≈ 2.06 µg/mL); MIC [2, 17]: 11 µM (≈ 3.02 µg/mL); MIC [3, 18]: 24 µM (≈ 6.58 µg/mL); MIC [4, 20]: 7.5 µM (≈ 2.06 µg/mL); MIC [5, 21]: 24 µM (≈ 6.58 µg/mL) |
